# Test results from PubChem BioAssay (NCI).
#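 Briefly, cells in 96-well plates were exposed to five compound concentrations for 48 h, and endpoints were estimated by linear interpolation. Here, GI50 denotes the concentration required for 50% inhibition of growth. The concentration for full growth arrest is given as TGI.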
# Tests used:
# Test in all cases: DTP human tumour cell line panel, 48 h
# PC-3 prostate = test system: PC-3 prostate
# SW-620 colon = test system: SW-620 colon
# TK-10 renal = test system: TK-10 renal
# HS 578T breast = test system: HS 578T breast
# A498 renal = test system: A498 renal
# LOX IMVI melanoma = test system: LOX IMVI melanoma
# HOP-62 NSCLC = test system: HOP-62 NSCLC
# SK-OV-3 ovarian = test system: SK-OV-3 ovarian
# NCI-H23 lung = test system: NCI-H23 lung
# MALME-3M melanoma = test system: MALME-3M melanoma
SMILES,TGI (PC-3 prostate) [µM],TGI (SW-620 colon) [µM],TGI (TK-10 renal) [µM],TGI (HS 578T breast) [µM],TGI (A498 renal) [µM],TGI (LOX IMVI melanoma) [µM],TGI (HOP-62 NSCLC) [µM],TGI (SK-OV-3 ovarian) [µM],TGI (NCI-H23 lung) [µM],GI50 (PC-3 prostate) [µM],GI50 (SW-620 colon) [µM],GI50 (TK-10 renal) [µM],GI50 (HS 578T breast) [µM],GI50 (A498 renal) [µM],GI50 (LOX IMVI melanoma) [µM],GI50 (HOP-62 NSCLC) [µM],GI50 (SK-OV-3 ovarian) [µM],GI50 (MALME-3M melanoma) [µM],TGI (MALME-3M melanoma) [µM],GI50 (NCI-H23 lung) [µM]
Cn1c2ccccc2c(=S)c2cc(NC(=O)CCCCC(=O)Nc3ccc4c(c3)c(=S)c3ccccc3n4C)ccc21,> 100,> 100,> 100,> 100,> 100,> 100,> 100,> 100,> 100,,,,,,,,,,,
COc1ccc2c(c1)CC[C@@H]1[C@@H]2CC[C@]2(C)c3c(cc(C(=O)c4ccccc4)c4sccc34)C[C@@H]12,> 100,> 100,> 100,> 100,> 100,> 100,> 100,> 100,> 100,38.1,> 100,> 100,> 100,> 100,> 100,> 100,> 100,> 100,> 100,> 100
CC(=O)O[C@@H]1CC(=O)O[C@@H]2C[C@@H](CC/C(Cl)=C/C/C=C\1C)O[C@@H]2CO,> 25,> 25,> 25,> 25,> 25,> 25,> 25,> 25,> 25,> 25,> 25,> 25,> 25,20.1,> 25,> 25,> 25,,,> 25
O=C(Nc1cc(Cl)cc(Cl)c1)c1ccc(NC2=C(Cl)C(=O)N(Cc3ccccc3)C2=O)cc1,12.7,,51.5,5.49,22.2,5.86,17.8,73.7,16.3,3.29,,19.5,1.99,8.06,2.21,4.21,22,14.6,30.4,4.16
N=C(N)c1ccc(-c2ccc(-c3ccco3)o2)cc1F,,3.7,3.24,4.7,4.83,3.05,10.4,11.5,,,1.72,1.69,1.53,1.36,1.6,2.96,3.2,1.74,3.38,
COc1ccc(C2SC(C)C(=O)N2NC(=O)C(O)c2ccccc2)cc1 (stereo unspecified),> 100,> 100,> 100,> 100,> 100,> 100,> 100,> 100,,> 100,> 100,> 100,> 100,> 100,> 100,> 100,63.1,,,
Cc1ccc(C2CC(c3cccc(Nc4ccncc4)c3)=NN2c2ccc(Cl)cc2)cc1 (stereo unspecified),3.08,3.04,3.35,,2.7,2.97,,3.17,3.39,1.59,1.55,1.78,,1.38,1.62,,1.65,1.6,3.05,1.77
OCCCNC(=S)Nc1ccc(-c2nc3ccccc3s2)cc1,> 100,> 100,55.8,> 100,,38.2,> 100,> 100,60.8,27.7,47.7,19.3,33,,17.9,31.8,63.7,19.3,52.7,24.3
COc1ccc2oc(-c3ccc(Cl)cc3)c(N3CCN(C)CC3)c2c1,5.54,3.48,3.58,3.86,3.15,3.07,3.86,4.99,8.99,1.69,1.82,1.83,1.71,1.53,1.61,1.82,2.17,,,2.88
COc1ccc(OC)c(/C=C/c2cnnc3ccccc23)c1,> 10,> 10,> 10,7.76,,> 10,> 10,> 10,> 10,,,,,,,,,,,
COc1cc2c(/C=C3/C(=O)Nc4c3ccc3ccccc43)c(Cl)[nH]c2cc1C,> 16.8,> 50,> 50,,> 50,0.0304,4.08,> 50,4.59,0.0152,0.0781,30.5,0.289,> 50,0.00548,0.0144,0.0364,,,0.0152
NNc1nc(-c2ccccn2)nc2sc3c(c12)CCCCCC3,> 100,> 100,> 100,> 100,11.8,> 100,> 100,> 100,> 100,3.98,4.53,9.16,11,1.86,6.17,8.57,30.9,,,9
COC(=O)/C(Cl)=C1/CC1COCc1ccccc1 (stereo unspecified),,45.1,> 100,,96.9,> 10,> 100,> 100,88.2,,,,,,,,,,83.1,
[O-][N+]1=C(c2ccccc2)COc2ccccc21,,> 100,> 100,,> 100,> 100,> 100,> 100,> 100,,,,,,,,,,> 100,
Cc1ccc(S(=O)(=O)C2=C3C(=C(c4ccccc4)c4ccccc43)CN(S(=O)(=O)c3ccc(C)cc3)C2)cc1,> 100,3.4,30.1,39.9,,2.42,51.9,> 100,23.7,3.39,0.636,14.2,2.57,,1.12,15.4,> 100,9.71,29.2,3.36
